In ChEMBL document CHEMBL4043136, “Chiral-pool synthesis of 1,2,4-trisubstituted 1,4-diazepanes as novel σ1 receptor ligands” (Bioorg Med Chem, 2017):
Activity calls are given as the source filed them. The rule behind the calls is not given here.

What was measured:
[1] = molecular target: Sigma non-opioid intracellular receptor 1 (Cavia porcellus, UniProt Q60492); test: Displacement of [3H]-pentazocine from sigma1 receptor in guinea pig brain membranes after 120 mins by liquid scintillation counting; type: cell membranes, Membrane
[2] = molecular target: T1, Sigma intracellular receptor 2 (Rattus norvegicus, UniProt Q5U3Y7); test: Displacement of [3H]-DTG from sigma2 receptor in rat liver membranes after 120 mins by liquid scintillation counting; type: cell membranes, Membrane
T1 sequence (Q5U3Y7 whole entry): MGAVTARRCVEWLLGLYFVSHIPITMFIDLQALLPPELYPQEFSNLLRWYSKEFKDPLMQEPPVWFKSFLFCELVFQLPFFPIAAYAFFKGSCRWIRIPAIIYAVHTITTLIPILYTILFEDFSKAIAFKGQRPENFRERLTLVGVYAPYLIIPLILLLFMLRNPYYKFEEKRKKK

[3] = Displacement of [3H]-(+)-MK 801 from PCP binding site of NMDA receptor in pig brain cortex membranes after 120 mins by liquid scintillation spectrometry; type: cell membranes, Sus scrofa
[4] = molecular target: C-8 sterol isomerase ERG2 (Saccharomyces cerevisiae S288c) (UniProt P32352); test: Inhibition of yeast sterol-delta8/7-isomerase assessed as accumulation of cholesta-8-en-3beta-ol at 1 uM
[5] = molecular target: C-8 sterol isomerase ERG2 (Saccharomyces cerevisiae S288c) (UniProt P32352); test: Inhibition of yeast sterol-delta8/7-isomerase assessed as accumulation of cholesta-8,14-dien-3beta-ol at 1 uM
[6] = molecular target: C-8 sterol isomerase ERG2 (Saccharomyces cerevisiae S288c) (UniProt P32352); test: Inhibition of yeast sterol-delta8/7-isomerase assessed as accumulation of cholesta-5,7-dien-3beta-ol at 1 uM
[7] = molecular target: C-8 sterol isomerase ERG2 (Saccharomyces cerevisiae S288c) (UniProt P32352); test: Inhibition of yeast sterol-delta8/7-isomerase assessed as accumulation of cholesta-7-en-3beta-ol at 1 uM
[8] = molecular target: C-8 sterol isomerase ERG2 (Saccharomyces cerevisiae S288c) (UniProt P32352); test: Inhibition of yeast sterol-delta8/7-isomerase assessed as accumulation of cholesta-7-en-3beta-ol at 50 uM
[9] = molecular target: C-8 sterol isomerase ERG2 (Saccharomyces cerevisiae S288c) (UniProt P32352); test: Inhibition of yeast sterol-delta8/7-isomerase assessed as accumulation of cholesta-8,14-dien-3beta-ol at 50 uM
[10] = molecular target: C-8 sterol isomerase ERG2 (Saccharomyces cerevisiae S288c) (UniProt P32352); test: Inhibition of yeast sterol-delta8/7-isomerase assessed as accumulation of cholesta-8-en-3beta-ol at 50 uM
[11] = molecular target: C-8 sterol isomerase ERG2 (Saccharomyces cerevisiae S288c) (UniProt P32352); test: Inhibition of yeast sterol-delta8/7-isomerase assessed as accumulation of cholesta-5,7-dien-3beta-ol at 50 uM
[12] = molecular target: C-8 sterol isomerase ERG2 (Saccharomyces cerevisiae S288c) (UniProt P32352); test: Inhibition of yeast sterol-delta8/7-isomerase at 50 uM

Sequence of Sigma non-opioid intracellular receptor 1 (Q60492 whole entry): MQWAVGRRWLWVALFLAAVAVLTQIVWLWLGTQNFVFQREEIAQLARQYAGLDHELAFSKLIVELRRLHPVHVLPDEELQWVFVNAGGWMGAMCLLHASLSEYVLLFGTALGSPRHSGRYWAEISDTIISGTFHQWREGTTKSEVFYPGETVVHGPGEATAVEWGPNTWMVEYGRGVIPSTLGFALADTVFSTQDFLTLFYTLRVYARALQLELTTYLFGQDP
Sequence of C-8 sterol isomerase ERG2 (Saccharomyces cerevisiae S288c) (P32352 whole entry, looked up): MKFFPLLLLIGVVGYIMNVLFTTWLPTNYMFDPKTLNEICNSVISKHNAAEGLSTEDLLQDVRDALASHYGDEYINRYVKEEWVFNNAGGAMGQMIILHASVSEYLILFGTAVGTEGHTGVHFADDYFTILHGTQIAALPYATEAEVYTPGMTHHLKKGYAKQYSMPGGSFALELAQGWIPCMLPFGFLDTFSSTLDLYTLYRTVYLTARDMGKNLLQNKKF

Row | SMILES | Ki [1] [µM] | Ki [2] [µM] | IC50 [3] [µM] | inhibition [4] | inhibition [5] | inhibition [6] | inhibition [7] | inhibition [8] | inhibition [9] | inhibition [10] | inhibition [11] | inhibition [12]
1 | CCCCN1CCCN(CCCCc2ccccc2)[C@H](Cc2ccccc2)C1 | 0.013 | 0.942 | > 1 |  |  |  |  |  |  |  |  | 
2 | CCCCN1CCCN(C)[C@@H](Cc2ccccc2)C1 | 0.12 | > 1 | > 1 |  |  |  |  |  |  |  |  | 
3 | c1ccc(CCN2CCCN(Cc3ccccc3)[C@H](Cc3ccccc3)C2)cc1 | 0.052 | > 1 | > 1 | Active | Active | Active | Active |  |  |  |  | 
4 | C[C@H]1CN(CC2CCCCC2)CCCN1Cc1ccccc1 | 0.00022 | 0.0074 | > 1 | inactive | inactive | Active | Active | Active | inactive | inactive | Active | 
5 | C[C@@H]1CN(CCCCc2ccccc2)CCCN1Cc1ccccc1 | 0.00083 | 0.071 | > 1 | Active | inactive | Active | Active | Active | inactive | inactive | Active | 
6 | c1ccc(CCCCN2CCCN(Cc3ccccc3)[C@@H](Cc3ccccc3)C2)cc1 | 0.038 | 0.372 | > 1 | inactive | Active | Active | Active |  |  |  |  | 
7 | CCCCN1CCN(CCc2ccc(Cl)c(Cl)c2)CC1 | 0.00055 |  |  |  |  |  |  |  |  |  |  | 
8 | COc1ccc(CN2CCCN(Cc3ccccc3)[C@H](C)C2)cc1 | 0.00051 | 0.431 | > 1 |  |  |  |  |  |  |  |  | 
9 | CCCCN1CCCN(Cc2ccccc2)[C@H](Cc2ccccc2)C1 | 0.0039 | 0.169 | > 1 | Active | Active | Active | Active | Active | Active | inactive | Active | Active
10 | c1ccc(CCCN2CCCN(Cc3ccccc3)[C@@H](Cc3ccccc3)C2)cc1 | 0.073 | 0.193 | > 1 | Active | Active | Active | Active |  |  |  |  | 
11 | CN1CCCN(Cc2ccccc2)[C@@H](Cc2ccccc2)C1 | 0.448 | > 1 | > 1 | inactive | Active | Active | Active | Active | inactive | inactive | Active | 
12 | c1ccc(CCCCN2CCCN(Cc3ccccc3)[C@H](Cc3ccccc3)C2)cc1 | 0.028 | 0.423 | > 1 | inactive | inactive | Active | Active | Active | Active | Active | Active | 
13 | C[C@@H]1CN(CC2CCCCC2)CCCN1Cc1ccccc1 | 0.00038 | 0.007 | > 1 | inactive | inactive | Active | Active | Active | inactive | inactive | Active | 
14 | c1ccc(CCCN2CCCN(Cc3ccccc3)[C@H](Cc3ccccc3)C2)cc1 | 0.025 | 0.3 | > 1 | Active | Active | inactive | Active | Active | Active | Active | Active | 
15 | C[C@H]1CN(CC2CCCCC2)CCCN1Cc1ccc(Cl)cc1 | 0.0049 | 0.051 | > 1 |  |  |  |  |  |  |  |  | 
16 | COc1ccc(CN2CCCN(CC3CCCCC3)C[C@@H]2C)cc1 | 0.0011 | 0.019 | > 1 |  |  |  |  |  |  |  |  | 

Row | SMILES | Ki [1] [µM] | Ki [2] [µM] | IC50 [3] [µM] | inhibition [4] | inhibition [5] | inhibition [6] | inhibition [7] | inhibition [8] | inhibition [9] | inhibition [10] | inhibition [11] | inhibition [12]
17 | CCCCN1CCCN(CCCC)[C@H](Cc2ccccc2)C1 | 0.021 | > 1 | > 1 |  |  |  |  |  |  |  |  | 
18 | CCCCN1CCCN(CCCC)[C@@H](Cc2ccccc2)C1 | 0.018 | 0.278 | > 1 |  |  |  |  |  |  |  |  | 
19 | OCC(c1ccccc1)N1CCCN(Cc2ccccc2)[C@@H](Cc2ccccc2)C1 (some centres undefined) | 0.228 | > 1 | > 1 |  |  |  |  |  |  |  |  | 
20 | COc1ccc(CN2CCCN(Cc3ccccc3)[C@@H](C(C)C)C2)cc1 | 0.02 | > 1 | > 1 | Active | Active | Active | Active | Active | inactive | Active | Active | 
21 | COc1ccc(CN2CCCN(Cc3ccccc3)[C@@H](Cc3ccccc3)C2)cc1 | 0.029 | > 1 | > 1 | Active | Active | Active | inactive | Active | Active | inactive | Active | 
22 | c1ccc(C[C@@H]2CNCCCN2Cc2ccccc2)cc1 | > 1 | > 1 | > 1 | Active | Active | Active | Active | Active | Active | inactive | Active | 
23 | CCCCN1CCCN(C)[C@H](Cc2ccccc2)C1 | 0.113 | 1 | > 1 |  |  |  |  |  |  |  |  | 
24 | CC(C)[C@H]1CN(CC2CCCCC2)CCCN1Cc1ccccc1 | 0.006 | > 1 | > 1 | inactive | Active | Active | Active | Active | inactive | Active | Active | 
25 | CN1CCCN(Cc2ccccc2)[C@H](Cc2ccccc2)C1 | 0.28 | > 1 | > 1 | inactive | Active | Active | Active | Active | Active | Active | Active | 
26 | OC(CN1CCCN(Cc2ccccc2)[C@@H](Cc2ccccc2)C1)c1ccccc1 (some centres undefined) | 0.234 | 0.903 | > 1 |  |  |  |  |  |  |  |  | 
27 | C[C@H]1CN(CCCCc2ccccc2)CCCN1Cc1ccccc1 | 0.00077 | 0.0086 | > 1 | Active | inactive | Active | Active |  |  |  |  | 
28 | c1ccc(C[C@H]2CNCCCN2Cc2ccccc2)cc1 | > 1 | > 10 | > 1 | Active | Active | Active | Active | Active | Active | inactive | inactive | 
29 | CCCCN1CCCN(CCCCc2ccccc2)[C@@H](Cc2ccccc2)C1 | 0.0062 | > 1 | > 1 |  |  |  |  |  |  |  |  | 
30 | CC(C)=CCN1CCCN(Cc2ccccc2)[C@H](Cc2ccccc2)C1 | 0.005 | 0.325 | > 1 | inactive | inactive | Active | Active | Active | Active | inactive | Active | 
31 | CCCCN1CCCN(Cc2ccccc2)[C@H](C)C1 | 0.00037 | 0.372 | > 1 | Active | Active | inactive | Active | Active | inactive | inactive | Active | 
32 | CCCCN1CCCN(Cc2ccccc2)[C@@H](C)C1 | 0.00061 | 0.276 | > 1 | Active | Active | Active | Active | Active | inactive | inactive | Active | 
